Laboratory results: PubChem BioAssay AID248 (DTP/NCI, 2004)
“And” between values parts separate entries of the source, which are not always exact repeats. Identical values can stand only once. Toxic doses and inconclusive results are not listed. Rule as the data show it: active = T/C of 150% or more; inactive = T/C below 125%.

Tested on: L1210 leukemia ip in BDF1 mice, survival T/C
Assay: NCI In Vivo Anticancer Drug Screen. Data for tumor model L1210 Leukemia (intraperitoneal) in B6D2F1 (BDF1) mice
Conditions: endpoint: mean survival time, higher = longer survival
Method in brief: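 Value reflects the ratio of survival in compound-treated mice to survival in vehicle-treated controls, with both groups carrying the same transplanted tumor.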

[1] = dose: 50.0 mg/kg/injection, schedule: Q01DX009 (ip), vehicle: saline with Tween-80
[2] = dose: 100.0 mg/kg/injection, schedule: Q01DX009 (ip), vehicle: saline with Tween-80
[3] = dose: 25.0 mg/kg/injection, schedule: Q01DX009 (ip), vehicle: water
[4] = dose: 50.0 mg/kg/injection, schedule: Q01DX009 (ip), vehicle: water
[5] = dose: 100.0 mg/kg/injection, schedule: Q01DX009 (ip), vehicle: Klucel (hydroxypropylcellulose) (HPC)
[6] = dose: 200.0 mg/kg/injection, schedule: Q01DX009 (ip), vehicle: Klucel (hydroxypropylcellulose) (HPC)
[7] = dose: 400.0 mg/kg/injection, schedule: Q01DX009 (ip), vehicle: Klucel (hydroxypropylcellulose) (HPC)
[8] = dose: 100.0 mg/kg/injection, schedule: Q01DX001 (ip), vehicle: saline
[9] = dose: 200.0 mg/kg/injection, schedule: Q01DX001 (ip), vehicle: saline
[10] = dose: 400.0 mg/kg/injection, schedule: Q01DX001 (ip), vehicle: saline
[11] = dose: 100.0 mg/kg/injection, schedule: Q01DX001 (ip), vehicle: Klucel (hydroxypropylcellulose) (HPC)
[12] = dose: 200.0 mg/kg/injection, schedule: Q01DX001 (ip), vehicle: Klucel (hydroxypropylcellulose) (HPC)
[13] = dose: 200.0 mg/kg/injection, schedule: Q01DX009 (ip), vehicle: water
[14] = dose: 200.0 mg/kg/injection, schedule: Q01DX009 (ip), vehicle: saline with Tween-80

Measured: T/C

O=C(Nc1cccc(C2=NCCN2)c1)c1ccc(C(=O)Nc2cccc(C3=NCCN3)c2)c(Cl)c1
inactive: dose: 0.75 mg/kg/injection, schedule: Q01DX Z (ip), vehicle: carboxymethylcellulose (CMC) 101 % of control | dose: 1.0 mg/kg/injection, schedule: Q01DX009 (ip), vehicle: saline 97 % of control | dose: 1.5 mg/kg/injection, schedule: Q01DX Z (ip), vehicle: carboxymethylcellulose (CMC) 95 % of control and 104 % of control | dose: 2.0 mg/kg/injection, schedule: Q01DX009 (ip), vehicle: saline 97 % of control | dose: 3.0 mg/kg/injection, schedule: Q01DX Z (ip), vehicle: carboxymethylcellulose (CMC) 96 % of control and 98 % of control | dose: 4.0 mg/kg/injection, schedule: Q01DX009 (ip), vehicle: saline 95 % of control | dose: 6.0 mg/kg/injection, schedule: Q01DX Z (ip), vehicle: carboxymethylcellulose (CMC) 93 % of control and 96 % of control | dose: 8.0 mg/kg/injection, schedule: Q01DX009 (ip), vehicle: saline 94 % of control | dose: 9.0 mg/kg/injection, schedule: Q01DX Z (ip), vehicle: methylcellulose (MC) 93 % of control | dose: 12.0 mg/kg/injection, schedule: Q01DX Z (ip), vehicle: carboxymethylcellulose (CMC) 95 % of control | dose: 12.0 mg/kg/injection, schedule: Q01DX Z (ip), vehicle: methylcellulose (MC) 95 % of control | dose: 18.0 mg/kg/injection, schedule: Q01DX Z (ip), vehicle: methylcellulose (MC) 109 % of control | dose: 27.0 mg/kg/injection, schedule: Q01DX Z (ip), vehicle: methylcellulose (MC) 106 % of control

CCCCCCC1N(C)CCCN1C
inactive: dose: 25.0 mg/kg/injection, schedule: Q01DX009 (ip), vehicle: saline with Tween-80 98 % of control | dose: 25.0 mg/kg/injection, schedule: Q04DX003 (ip), vehicle: saline with Tween-80 100 % of control | [1] 94 % of control | dose: 50.0 mg/kg/injection, schedule: Q04DX003 (ip), vehicle: saline with Tween-80 98 % of control | [2] 86 % of control | dose: 100.0 mg/kg/injection, schedule: Q04DX003 (ip), vehicle: saline with Tween-80 100 % of control and 103 % of control

O=[N+]([O-])c1ccc(C[Se]c2ncnc3c2ncn3C2OC(CO)C(O)C2O)cc1 (stereo not given)
inactive: dose: 3.12 mg/kg/injection, schedule: Q01DX009 (ip), vehicle: saline 100 % of control | dose: 6.25 mg/kg/injection, schedule: Q01DX005 (ip), vehicle: saline 106 % of control | dose: 6.25 mg/kg/injection, schedule: Q01DX009 (ip), vehicle: saline 98 % of control | dose: 12.5 mg/kg/injection, schedule: Q01DX005 (ip), vehicle: saline 96 % of control | dose: 12.5 mg/kg/injection, schedule: Q01DX009 (ip), vehicle: saline 98 % of control | dose: 12.5 mg/kg/injection, schedule: Q01DX009 (ip), vehicle: water 93 % of control | dose: 25.0 mg/kg/injection, schedule: Q01DX005 (ip), vehicle: saline 109 % of control | dose: 25.0 mg/kg/injection, schedule: Q01DX009 (ip), vehicle: saline 102 % of control | [3] 98 % of control | [4] 93 % of control

Cc1cc(C)[nH]c(=O)n1
inactive: dose: 100.0 mg/kg/injection, schedule: Q01DX009 (ip), vehicle: saline 98 % of control | dose: 100.0 mg/kg/injection, schedule: Q04DX003 (ip), vehicle: saline 100 % of control | dose: 200.0 mg/kg/injection, schedule: Q01DX009 (ip), vehicle: saline 88 % of control | dose: 200.0 mg/kg/injection, schedule: Q04DX003 (ip), vehicle: saline 94 % of control | dose: 400.0 mg/kg/injection, schedule: Q04DX003 (ip), vehicle: saline 96 % of control

Cc1ccc(Cl)cc1NS(=O)(=O)c1cc(Cl)c(Cl)cc1Cl
inactive: [5] 93 % of control | [6] 89 % of control | [7] 94 % of control

CCCCCCCCCCCCCC(C)C
inactive: [8] 96 % of control | [9] 102 % of control | [10] 94 % of control

C(CC1CCCC1)=C(CCC1CCCC1)CCC1CCCC1
inactive: dose: 50.0 mg/kg/injection, schedule: Q04DX002 (ip), vehicle: saline with Tween-80 103 % of control | dose: 100.0 mg/kg/injection, schedule: Q04DX002 (ip), vehicle: saline with Tween-80 92 % of control | dose: 200.0 mg/kg/injection, schedule: Q04DX002 (ip), vehicle: saline with Tween-80 95 % of control | dose: 400.0 mg/kg/injection, schedule: Q04DX002 (ip), vehicle: saline with Tween-80 92 % of control

Nc1cc(Cl)c([N+](=O)[O-])c(N)n1
inactive: [11] 101 % of control | [12] 106 % of control | dose: 400.0 mg/kg/injection, schedule: Q01DX001 (ip), vehicle: Klucel (hydroxypropylcellulose) (HPC) 108 % of control

O=[N+]([O-])c1cccc2nc(N/N=C/c3ccccc3O)ccc12
inactive: [3] 89 % of control | [4] 94 % of control | [13] 94 % of control | dose: 400.0 mg/kg/injection, schedule: Q01DX009 (ip), vehicle: water 93 % of control

C/C=C/C1CC2CC(C1C)C2(C)C (stereo not given)
inactive: [1] 97 % of control | [2] 97 % of control | [14] 101 % of control

CCOC(=O)C1(C)CCN(C)C1=O (stereo not given)
inactive: [8] 96 % of control | [9] 96 % of control | [10] 96 % of control

Cc1ccccc1OC(=O)Nc1ccc(C(=O)O)c(O)c1
inactive: dose: 100.0 mg/kg/injection, schedule: Q01DX001 (ip), vehicle: saline with Tween-80 93 % of control | [2] 94 % of control | dose: 200.0 mg/kg/injection, schedule: Q01DX001 (ip), vehicle: saline with Tween-80 96 % of control | [14] 97 % of control | dose: 400.0 mg/kg/injection, schedule: Q01DX001 (ip), vehicle: saline with Tween-80 93 % of control

Nc1nc(-c2cccc([N+](=O)[O-])c2)nc2[nH]ncc12
inactive: dose: 37.5 mg/kg/injection, schedule: Q01DX001 (ip), vehicle: Klucel (hydroxypropylcellulose) (HPC) 98 % of control | dose: 75.0 mg/kg/injection, schedule: Q01DX001 (ip), vehicle: Klucel (hydroxypropylcellulose) (HPC) 98 % of control | dose: 150.0 mg/kg/injection, schedule: Q01DX001 (ip), vehicle: Klucel (hydroxypropylcellulose) (HPC) 96 % of control

CSCC1OC(n2nnc3c(N)ncnc32)C(O)C1O (stereo not given)
inactive: [11] 100 % of control | [12] 103 % of control

CC1(C)C2CC3CC(C(=O)O)C(C(=O)O)CC3(C2)C1Br (stereo not given)
inactive: dose: 100.0 mg/kg/injection, schedule: Q04DX003 (ip), vehicle: Klucel (hydroxypropylcellulose) (HPC) 101 % of control | dose: 200.0 mg/kg/injection, schedule: Q04DX003 (ip), vehicle: Klucel (hydroxypropylcellulose) (HPC) 101 % of control | dose: 400.0 mg/kg/injection, schedule: Q04DX003 (ip), vehicle: Klucel (hydroxypropylcellulose) (HPC) 101 % of control

CCN=C(N)c1ccc(NC(=O)Nc2ccc(NC(=O)Nc3ccc(C(N)=NCC)cc3)cc2)cc1
inactive: dose: 0.31 mg/kg/injection, schedule: Q01DX Z (ip), vehicle: carboxymethylcellulose (CMC) 98 % of control | dose: 0.62 mg/kg/injection, schedule: Q01DX Z (ip), vehicle: carboxymethylcellulose (CMC) 97 % of control | dose: 1.25 mg/kg/injection, schedule: Q01DX Z (ip), vehicle: carboxymethylcellulose (CMC) 90 % of control | dose: 2.5 mg/kg/injection, schedule: Q01DX Z (ip), vehicle: carboxymethylcellulose (CMC) 107 % of control

CCOc1ccc2nc(/C=C/c3ccccc3)ccc2c1
inactive: dose: 200.0 mg/kg/injection, schedule: Q01DX001 (ip), vehicle: carboxymethylcellulose (CMC) 89 % of control | dose: 400.0 mg/kg/injection, schedule: Q01DX001 (ip), vehicle: carboxymethylcellulose (CMC) 101 % of control

CN1CCNC(=O)CC1
inactive: [3] 106 % of control | [4] 102 % of control | dose: 100.0 mg/kg/injection, schedule: Q01DX009 (ip), vehicle: water 98 % of control | [13] 114 % of control

Nc1ccccc1SC(CC(=O)c1ccccc1)c1ccc([N+](=O)[O-])cc1 (stereo not given)
inactive: dose: 100.0 mg/kg/injection, schedule: Q01DX005 (ip), vehicle: Klucel (hydroxypropylcellulose) (HPC) 101 % of control | [5] 97 % of control | [6] 91 % of control | dose: 400.0 mg/kg/injection, schedule: Q01DX005 (ip), vehicle: Klucel (hydroxypropylcellulose) (HPC) 86 % of control | [7] 97 % of control
